Experimental data taken from US11912686B2 (Gilead Sciences, Inc., priority 2020, dated 2024).

Molecular target: human LPAR1 (Homo sapiens (Human), UniProt Q92633)
Assay: LPAR1 intracellular calcium mobilization assay (antagonist mode, FLIPR)
Type: cell-based
Settings: CHO-K1 EDG2 cells expressing human LPAR1, LPA 18:2 at EC80 (100 nM), test compound 0.5 nM to 10 μM

human LPAR1, sequence (Q92633 whole entry): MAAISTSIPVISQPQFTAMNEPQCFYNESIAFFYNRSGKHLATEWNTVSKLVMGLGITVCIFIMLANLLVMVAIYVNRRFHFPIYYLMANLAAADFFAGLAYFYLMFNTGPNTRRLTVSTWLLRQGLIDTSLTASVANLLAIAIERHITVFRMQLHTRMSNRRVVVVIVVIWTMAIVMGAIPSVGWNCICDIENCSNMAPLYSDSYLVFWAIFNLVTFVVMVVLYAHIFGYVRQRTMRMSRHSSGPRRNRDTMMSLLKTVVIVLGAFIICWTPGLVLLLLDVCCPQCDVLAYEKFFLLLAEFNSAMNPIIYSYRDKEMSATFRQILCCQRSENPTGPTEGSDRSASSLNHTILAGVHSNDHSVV

SMILES	EC50 [nM]
C[C@@H](OC(=O)Nc1c(-c2ccc(NC(=O)c3cnc(C(F)F)nc3)cn2)nnn1C)c1cc(F)cnc1F [Compound 252, (R)-1-(2,5-difluoropyridin-3-yl)ethyl (4-(5-(2-(difluoromethyl)pyrimidine-5-carboxamido)pyridin-2-yl)-1-methyl-1H-1,2,3-triazol-5-yl)carbamate]	73.5
C[C@@H](OC(=O)Nc1c(-c2ccc(NC(=O)c3cnccc3Cl)cn2)nnn1C)c1cc(F)cnc1F [Compound 253, (R)-1-(2,5-difluoropyridin-3-yl)ethyl (4-(5-(4-chloronicotinamido)pyridin-2-yl)-1-methyl-1H-1,2,3-triazol-5-yl)carbamate]	551
C[C@@H](OC(=O)Nc1c(-c2ccc(NC(=O)c3ccc(C(F)(F)F)nc3F)cn2)nnn1C)c1cc(F)cnc1F [Compound 254, (R)-1-(2,5-difluoropyridin-3-yl)ethyl (4-(5-(2-fluoro-6-(trifluoromethyl)nicotinamido)pyridin-2-yl)-1-methyl-1H-1,2,3-triazol-5-yl)carbamate]	18.1
C[C@@H](OC(=O)Nc1c(-c2ccc(NC(=O)c3cnc(F)cc3F)cn2)nnn1C)c1cc(F)cnc1F [Compound 255, (R)-1-(2,5-difluoropyridin-3-yl)ethyl (4-(5-(4,6-difluoronicotinamido)pyridin-2-yl)-1-methyl-1H-1,2,3-triazol-5-yl)carbamate]	346
Cc1ncc(C(=O)Nc2ccc(-c3nnn(C)c3NC(=O)O[C@H](C)c3cc(F)cnc3F)nc2)o1 [Compound 256, (R)-1-(2,5-difluoropyridin-3-yl)ethyl (1-methyl-4-(5-(2-methyloxazole-5-carboxamido)pyridin-2-yl)-1H-1,2,3-triazol-5-yl)carbamate]	209
Cc1nnc(C(=O)Nc2ccc(-c3nnn(C)c3NC(=O)O[C@H](C)c3cc(F)cnc3F)nc2)o1 [Compound 257, (R)-1-(2,5-difluoropyridin-3-yl)ethyl (1-methyl-4-(5-(5-methyl-1,3,4-oxadiazole-2-carboxamido)pyridin-2-yl)-1H-1,2,3-triazol-5-yl)carbamate]	443
C[C@@H](OC(=O)Nc1c(-c2ccc(NC(=O)c3cc(C#N)no3)cn2)nnn1C)c1cc(F)cnc1F [Compound 258, (R)-1-(2,5-difluoropyridin-3-yl)ethyl (4-(5-(3-cyanoisoxazole-5-carboxamido)pyridin-2-yl)-1-methyl-1H-1,2,3-triazol-5-yl)carbamate]	19.3
C[C@@H](OC(=O)Nc1c(-c2ccc(NC(=O)c3cnnc(C(F)(F)F)c3)cn2)nnn1C)c1cc(F)cnc1F [Compound 259, (R)-1-(2,5-difluoropyridin-3-yl)ethyl (1-methyl-4-(5-(6-(trifluoromethyl)pyridazine-4-carboxamido)pyridin-2-yl)-1H-1,2,3-triazol-5-yl)carbamate]	101
Cc1cc(C(=O)Nc2ccc(-c3nnn(C)c3NC(=O)O[C@H](C)c3cc(F)cnc3F)nc2)on1 [Compound 260, (R)-1-(2,5-difluoropyridin-3-yl)ethyl (1-methyl-4-(5-(3-methylisoxazole-5-carboxamido)pyridin-2-yl)-1H-1,2,3-triazol-5-yl)carbamate]	161
C[C@@H](OC(=O)Nc1c(-c2ccc(NC(=O)c3ccnc(C(F)(F)F)c3F)cn2)nnn1C)c1cc(F)cnc1F [Compound 261, (R)-1-(2,5-difluoropyridin-3-yl)ethyl (4-(5-(3-fluoro-2-(trifluoromethyl)isonicotinamido)pyridin-2-yl)-1-methyl-1H-1,2,3-triazol-5-yl)carbamate]	11.9
C[C@@H](OC(=O)Nc1c(-c2ccc(NC(=O)c3ccc(Cl)nc3F)cn2)nnn1C)c1cc(F)cnc1F [Compound 262, (R)-1-(2,5-difluoropyridin-3-yl)ethyl (4-(5-(6-chloro-2-fluoronicotinamido)pyridin-2-yl)-1-methyl-1H-1,2,3-triazol-5-yl)carbamate]	23.7
C[C@@H](OC(=O)Nc1c(-c2ccc(NC(=O)c3cncc(F)c3Cl)cn2)nnn1C)c1cc(F)cnc1F [Compound 263, (R)-1-(2,5-difluoropyridin-3-yl)ethyl (4-(5-(4-chloro-5-fluoronicotinamido)pyridin-2-yl)-1-methyl-1H-1,2,3-triazol-5-yl)carbamate]	691
C[C@@H](OC(=O)Nc1c(-c2ccc(NC(=O)c3cc(F)nc(F)c3F)cn2)nnn1C)c1cc(F)cnc1F [Compound 264, (R)-1-(2,5-difluoropyridin-3-yl)ethyl (1-methyl-4-(5-(2,3,6-trifluoroisonicotinamido)pyridin-2-yl)-1H-1,2,3-triazol-5-yl)carbamate]	203
C[C@@H](OC(=O)Nc1c(-c2ccc(NC(=O)[C@@H]3C[C@H]3c3ccccn3)cn2)nnn1C)c1cc(F)cnc1F [Compound 265, (R)-1-(2,5-difluoropyridin-3-yl)ethyl (1-methyl-4-(5-((1R,2R)-2-(pyridin-2-yl)cyclopropane-1-carboxamido)pyridin-2-yl)-1H-1,2,3-triazol-5-yl)carbamate]	19.5
C[C@@H](OC(=O)Nc1c(-c2ccc(NC(=O)[C@H]3C[C@@H]3c3ccccn3)cn2)nnn1C)c1cc(F)cnc1F [Compound 266, (R)-1-(2,5-difluoropyridin-3-yl)ethyl (1-methyl-4-(5-((1S,2S)-2-(pyridin-2-yl)cyclopropane-1-carboxamido)pyridin-2-yl)-1H-1,2,3-triazol-5-yl)carbamate]	749
C[C@@H](OC(=O)Nc1c(-c2ccc(NC(=O)[C@@H]3C[C@H]3C3CC3)cn2)nnn1C)c1cc(F)cnc1F [Compound 267, (R)-1-(2,5-difluoropyridin-3-yl)ethyl (4-(5-((1S,2R)[1,1′-bi(cyclopropane)]-2-carboxamido)pyridin-2-yl)-1-methyl-1H-1,2,3-triazol-5-yl)carbamate]	588
C[C@@H](OC(=O)Nc1c(-c2ccc(NC(=O)[C@H]3C[C@@H]3C3CC3)cn2)nnn1C)c1cc(F)cnc1F [Compound 268, (R)-1-(2,5-difluoropyridin-3-yl)ethyl (4-(5-((1R,2S)-[1,1′-bi(cyclopropane)]-2-carboxamido)pyridin-2-yl)-1-methyl-1H-1,2,3-triazol-5-yl)carbamate]	7.3
C[C@@H](OC(=O)Nc1c(-c2ccc(NC(=O)[C@]3(C#N)C[C@H]3F)cn2)nnn1C)c1cc(F)cnc1F [Compound 269, (R)-1-(2,5-difluoropyridin-3-yl)ethyl (4-(5-((1R,2R)-1-cyano-2-fluorocyclopropane-1-carboxamido)pyridin-2-yl)-1-methyl-1H-1,2,3-triazol-5-yl)carbamate]	127
C[C@@H](OC(=O)Nc1c(-c2ccc(NC(=O)[C@@]3(C#N)C[C@@H]3F)cn2)nnn1C)c1cc(F)cnc1F [Compound 270, (R)-1-(2,5-difluoropyridin-3-yl)ethyl (4-(5-((1S,2S)-1-cyano-2-fluorocyclopropane-1-carboxamido)pyridin-2-yl)-1-methyl-1H-1,2,3-triazol-5-yl)carbamate]	168
C[C@@H](OC(=O)Nc1c(-c2ccc(NC(=O)c3ccc(C4(C#N)CC4)nc3)cn2)nnn1C)c1cc(F)cnc1F [Compound 271, (R)-1-(2,5-difluoropyridin-3-yl)ethyl (4-(5-(6-(1-cyanocyclopropyl)nicotinamido)pyridin-2-yl)-1-methyl-1H-1,2,3-triazol-5-yl)carbamate]	229
C[C@@H](OC(=O)Nc1c(-c2ccc(NC(=O)c3ccc(C(C)(F)F)nc3)cn2)nnn1C)c1cc(F)cnc1F [Compound 272, (R)-1-(2,5-difluoropyridin-3-yl)ethyl (4-(5-(6-(1,1-difluoroethyl)nicotinamido)pyridin-2-yl)-1-methyl-1H-1,2,3-triazol-5-yl)carbamate]	162
C[C@@H](OC(=O)Nc1c(-c2ccc(NC(=O)c3ccnc(S(C)(=O)=O)c3)cn2)nnn1C)c1cc(F)cnc1F [Compound 273, (R)-1-(2,5-difluoropyridin-3-yl)ethyl (1-methyl-4-(5-(2-(methylsulfonyl)isonicotinamido)pyridin-2-yl)-1H-1,2,3-triazol-5-yl)carbamate]	248
C[C@@H](OC(=O)Nc1c(-c2ccc(NC(=O)c3ccc4ncn(C)c4c3)cn2)nnn1C)c1cc(F)cnc1F [Compound 274, (R)-1-(2,5-difluoropyridin-3-yl)ethyl (1-methyl-4-(5-(1-methyl-1H-benzo[d]imidazole-6-carboxamido)pyridin-2-yl)-1H-1,2,3-triazol-5-yl)carbamate]	403
C[C@@H](OC(=O)Nc1c(-c2ccc(NC(=O)c3cc(C(F)(F)F)cnc3F)cn2)nnn1C)c1cc(F)cnc1F [Compound 275, (R)-1-(2,5-difluoropyridin-3-yl)ethyl (4-(5-(2-fluoro-5-(trifluoromethyl)nicotinamido)pyridin-2-yl)-1-methyl-1H-1,2,3-triazol-5-yl)carbamate]	241
Cc1noc(C(=O)Nc2ccc(-c3nnn(C)c3NC(=O)O[C@H](C)c3cc(F)cnc3F)nc2)c1C [Compound 276, (R)-1-(2,5-difluoropyridin-3-yl)ethyl (4-(5-(3,4-dimethylisoxazole-5-carboxamido)pyridin-2-yl)-1-methyl-1H-1,2,3-triazol-5-yl)carbamate]	140
Cc1nc2cc(C(=O)Nc3ccc(-c4nnn(C)c4NC(=O)O[C@H](C)c4cc(F)cnc4F)nc3)cnc2[nH]1 [Compound 277, (R)-1-(2,5-difluoropyridin-3-yl)ethyl (1-methyl-4-(5-(2-methyl-3H-imidazo[4,5-b]pyridine-6-carboxamido)pyridin-2-yl)-1H-1,2,3-triazol-5-yl)carbamate]	955
C[C@@H](OC(=O)Nc1c(-c2ccc(NC(=O)c3cnc4cnn(C)c4c3)cn2)nnn1C)c1cc(F)cnc1F [Compound 278, (R)-1-(2,5-difluoropyridin-3-yl)ethyl (1-methyl-4-(5-(1-methyl-1H-pyrazolo[4,3-b]pyridine-6-carboxamido)pyridin-2-yl)-1H-1,2,3-triazol-5-yl)carbamate]	810
Cc1noc2cc(C(=O)Nc3ccc(-c4nnn(C)c4NC(=O)O[C@H](C)c4cc(F)cnc4F)nc3)ccc12 [Compound 279, (R)-1-(2,5-difluoropyridin-3-yl)ethyl (1-methyl-4-(5-(3-methylbenzo[d]isoxazole-6-carboxamido)pyridin-2-yl)-1H-1,2,3-triazol-5-yl)carbamate]	97.4
